Patent US20050037939A1, “Bottlewash additive” (Scimed Life Systems, Inc., priority 2002, published 2005)

Tested on: mold on REF-PET bottles
Test: Mold Remove Ability Test
Details: alkaline bottlewashing environment; conditions not given
Procedure: 1. Mold Remove Ability Test A) Compositions are prepared according to the following general formula: [table] B) Select field returned bottles with heavy mold (black). Select 4 bottles per testing sequence. C) Cut the mold samples from REF-PET bottles using a utility knife. D) Label PET/mold pieces to keep track of the source bottle and the solution in which they are tested. E) Prepare solutions using 2.8% NaOH and 1% of the bottlewashing additive unless otherwise specified. F) Preheat the solutions to 55° C. G) Immerse PET/mold samples in respective bottlewashing compositions and soaked for 15 minutes with stirring at 400 rpm. H) If the mold is removed during testing note the time of removal. I) Remove the samples from solution. If the mold was not removed, rinse the sample in tap water for 10 seconds to see if mold can be removed at this point. J) Grade the samples by a % of mold removed and average the 4 tests as well as the time required for removal (Time Removal Grade). Time Grade is defined as follows: [table] Other Grades may be in between or lower depending on total mold removal

C6 alkyl diphenylene oxide disulfonate
cleaning / mold removal by the surfactant (general statement): superior cleaning/mold removal characteristics
